In paper PMC6271239, “Synthesis and in Vitro Evaluation of New Nitro-Substituted Thiazolyl Hydrazone Derivatives as Anticandidal and Anticancer Agents” (Molecules, 2014):
Values after ≈ are worked out from the molar mass of the structure shown.

Experiments:
[1] = tested on: Candida tropicalis (NRRLY 12968); experiment: Anticandidal broth microdilution assay; assay type: cell-based; details: RPMI, 37 °C, 24 h
Description: (§1) Anticandidal activity assay was performed against Candida albicans (ATCC 10231), Candida utilis (NRRLY 900), Candida tropicalis (NRRLY 12968), Candida krusei (NRRLY 7179), Candida parapsilosis (NRRLY 12696) and Candida glabrata (ATCC 2001) standard strains according to the CSLI method.
(§2) The minimum inhibitory concentration (MIC, µg/mL) values against pathogenic Candida strains were determined by a broth microdilution method using a 96-well plate format. Compounds 1–14 and fluconazole as a standard control were first dissolved in dimethyl sulfoxide (DMSO) (25%) at an initial concentration of 2000 µg/mL.
(§3) All Candida strains were inoculated on Potato Dextrose Agar (PDA) prior the experiments at 37 °C. After the incubation, sufficiently grown microorganisms were inoculated in sterile saline (0.85%), and then standardized according to the turbidity to 5 × 10^3 CFU (McFarland No: 0.5) per well in RPMI medium under sterile conditions. Serial dilutions were prepared in 100 µL RPMI medium with an equal amount of the test samples, and 100 µL each microorganism suspension was pipetted into each well and incubated at 37 °C for 24 h. Positive growth controls (to assess the presence of turbidity) were performed in wells without the test samples, whereas the negative growth control (medium) was also evaluated. MIC was deﬁned as the lowest concentration without any visible growth of the yeast when compared with the growth in the control plate. All experiments were performed in duplicate.

[2] = tested on: Candida albicans (ATCC 10231); experiment: Anticandidal broth microdilution assay; assay type: cell-based; details: ATCC10231, RPMI, 37 °C, 24 h
Description: as §1, §2, §3

[3] = tested on: Candida glabrata (ATCC 2001); experiment: Anticandidal broth microdilution assay; assay type: cell-based; details: Nakaseomyces glabratus, ATCC2001, RPMI, 37 °C, 24 h
Description: as §1, §2, §3

[4] = tested on: Candida krusei (NRRLY 7179); experiment: Anticandidal broth microdilution assay; assay type: cell-based; details: Pichia kudriavzevii, RPMI, 37 °C, 24 h
Description: as §1, §2, §3

[5] = tested on: Candida utilis (NRRLY 900); experiment: Anticandidal broth microdilution assay; assay type: cell-based; details: Williopsis jadinii, RPMI, 37 °C, 24 h
Description: as §1, §2, §3

[6] = tested on: Candida parapsilosis (NRRLY 12696); experiment: Anticandidal broth microdilution assay; assay type: cell-based; details: Lodderomyces parapsilosis, RPMI, 37 °C, 24 h
Description: as §1, §2, §3

[7] = tested on: MCF-7 human breast adenocarcinoma cell line; experiment: MTT cytotoxicity assay; assay type: cell-based; details: 3.9–500 µg/mL; for IC50: Homo sapiens, MCF7, 24 h incubation
Description: (§4) The tetrazolium salt, MTT (3-(4,5-dimethylthiazol-2-yl)-2,5-diphenyltetrazolium bromide), is used to measure the metabolic activity of viable cells. Tetrazolium salts are reduced to formazan by mitochondrial succinate dehydrogenase, an enzyme which is only active in cells with an intact metabolism. The formazan can be quantified photometrically and it is in correlation with the number of viable cells. Cytotoxicity was tested using the MCF-7 human breast adenocarcinoma cell line and NIH/3T3 mouse embryonic fibroblast cell line. NIH/3T3 and MCF-7 cells were incubated in RPMI medium (Hyclone, Thermo Scientific, Logan, UT, USA) supplemented with fetal calf serum (Hyclone), 100 IU/mL penicillin and […] (Hyclone) at 37 °C in a humidified atmosphere of 95% air and 5% CO2. MCF-7 and NIH/3T3 cells were seeded at 10,000 cells into each well of 96-well plates. After 24 h of incubating period, the culture mediums were removed and compounds were added to culture medium at 3.9–500 µg/mL concentrations. After 24 h of incubation, cytotoxicity tests were performed using the MTT assay, which measures mitochondrial activity, in MCF-7 and NIH/3T3 cells. Firstly, 20 µL MTT solution (5 mg/mL MTT powder in PBS) was added to each well. After 3 h incubation period at 37 °C, 5% CO2, the contents of the wells were removed and 100 µL DMSO was added to each well. Then, OD of the plate was read at 570 nm. Inhibition% was calculated for each concentration of the compounds. IC50 values were estimated by non-linear regression analysis. Cisplatin was used as a positive control. Stock solutions of compounds were prepared in DMSO and further dilutions were made with fresh culture medium. All experiments were performed in duplicate.

[8] = tested on: NIH/3T3 mouse embryonic fibroblast cell line; experiment: MTT cytotoxicity assay; assay type: cell-based; details: 3.9–500 µg/mL; for IC50: Mus musculus, NIH3T3, 24 h incubation
Description: as §4

| SMILES | melting point [°C] | MIC [1] [µg/mL] | MIC [2] [µg/mL] | MIC [3] [µg/mL] | MIC [4] [µg/mL] | MIC [5] [µg/mL] | MIC [6] [µg/mL] | IC50 [7] [µg/mL] | IC50 [8] [µg/mL] | IC50 MCF-7 Cell Line ([7]; 24 h incubation) [µg/mL] | IC50 NIH/3T3 Cell Line ([8]; 24 h incubation) [µg/mL] |
| --- | --- | --- | --- | --- | --- | --- | --- | --- | --- | --- | --- |
| Cc1ccc(-c2csc(NN=Cc3ccc(-c4ccc([N+](=O)[O-])cc4)o3)n2)cc1 [Compound 6, 2-[2-((5-(4-Nitrophenyl)furan-2-yl)methylene)hydrazinyl]-4-(p-tolyl)thiazole] | 236 to 237 | 1000 (≈ 2470 µM) | 500 (≈ 1240 µM) | 500 (≈ 1240 µM) | 1000 (≈ 2470 µM) | 500 (≈ 1240 µM) | 500 (≈ 1240 µM) | > 500 | > 500 |  |  |
| OC(Cn1cncn1)(Cn1cncn1)c1ccc(F)cc1F [Fluconazole, reference compound] |  | 1 (≈ 3.27 µM) | 1 (≈ 3.27 µM) | 2 (≈ 6.53 µM) | 2 (≈ 6.53 µM) | 2 (≈ 6.53 µM) | 2 (≈ 6.53 µM) |  |  |  |  |
| O=[N+]([O-])c1ccc(-c2csc(NN=Cc3ccc(-c4ccc(Cl)cc4[N+](=O)[O-])o3)n2)cc1 [Compound 9, 2-[2-((5-(4-Chloro-2-nitrophenyl)furan-2-yl)methylene)hydrazinyl]-4-(4-nitrophenyl)thiazole] | 216 to 220 | 500 (≈ 1060 µM) | 500 (≈ 1060 µM) | 1000 (≈ 2130 µM) | 500 (≈ 1060 µM) | 500 (≈ 1060 µM) | 500 (≈ 1060 µM) | 103 (≈ 218 µM) | 86.3 (≈ 184 µM) |  |  |
| O=[N+]([O-])c1ccc(-c2ccc(C=NNc3nc(-c4ccc(Cl)cc4)cs3)o2)cc1 [Compound 4, 4-(4-Chlorophenyl)-2-[2-((5-(4-nitrophenyl)furan-2-yl)methylene)hydrazinyl]thiazole] | 229 to 231 | 500 (≈ 1180 µM) | 500 (≈ 1180 µM) | 500 (≈ 1180 µM) | 500 (≈ 1180 µM) | 500 (≈ 1180 µM) | 1000 (≈ 2350 µM) | > 500 | > 500 |  |  |
| COc1ccc(-c2csc(NN=Cc3ccc(-c4ccc([N+](=O)[O-])cc4)o3)n2)cc1 [Compound 7, 4-(4-Methoxyphenyl)-2-[2-((5-(4-nitrophenyl)furan-2-yl)methylene)hydrazinyl]thiazole] | 232 to 233 | 500 (≈ 1190 µM) | 500 (≈ 1190 µM) | 1000 (≈ 2380 µM) | 500 (≈ 1190 µM) | 500 (≈ 1190 µM) | 500 (≈ 1190 µM) | > 500 | > 500 |  |  |
| O=[N+]([O-])c1ccc(-c2ccc(C=NNc3nc(-c4ccccc4)cs3)o2)cc1 [Compound 1, 2-[2-((5-(4-Nitrophenyl)furan-2-yl)methylene)hydrazinyl]-4-phenylthiazole] | 213 to 214 | 1000 (≈ 2560 µM) | 500 (≈ 1280 µM) | 1000 (≈ 2560 µM) | 500 (≈ 1280 µM) | 500 (≈ 1280 µM) | 500 (≈ 1280 µM) | > 500 | > 500 |  |  |
| O=[N+]([O-])c1ccc(-c2ccc(C=NNc3nc(-c4ccc(F)cc4)cs3)o2)cc1 [Compound 3, 4-(4-Fluorophenyl)-2-[2-((5-(4-nitrophenyl)furan-2-yl)methylene)hydrazinyl]thiazole] | 241 to 242 | 500 (≈ 1220 µM) | 500 (≈ 1220 µM) | 1000 (≈ 2450 µM) | 500 (≈ 1220 µM) | 500 (≈ 1220 µM) | 500 (≈ 1220 µM) | 500 (≈ 1220 µM) | 250 (≈ 612 µM) |  |  |
| O=[N+]([O-])c1ccc(-c2csc(NN=Cc3ccc(-c4ccc([N+](=O)[O-])cc4)o3)n2)cc1 [Compound 2, 4-(4-Nitrophenyl)-2-[2-((5-(4-nitrophenyl)furan-2-yl)methylene)hydrazinyl]thiazole] | 252 to 254 | 500 (≈ 1150 µM) | 500 (≈ 1150 µM) | 1000 (≈ 2300 µM) | 500 (≈ 1150 µM) | 500 (≈ 1150 µM) | 500 (≈ 1150 µM) | > 500 | > 500 |  |  |
| N.N.[Cl][Pt][Cl] [Cisplatin, reference compound] |  |  |  |  |  |  |  |  |  | 31.2 | 330.58 |
| O=[N+]([O-])c1ccc(-c2ccc(C=NNc3nc(-c4ccc(Br)cc4)cs3)o2)cc1 [Compound 5, 4-(4-Bromophenyl)-2-[2-((5-(4-nitrophenyl)furan-2-yl)methylene)hydrazinyl]thiazole] | 243 to 244 | 500 (≈ 1070 µM) | 500 (≈ 1070 µM) | 1000 (≈ 2130 µM) | 1000 (≈ 2130 µM) | 500 (≈ 1070 µM) | 500 (≈ 1070 µM) | > 500 | > 500 |  |  |

More lines, main results first:

| melting point [°C] | MIC [1] [µg/mL] | MIC [2] [µg/mL] | MIC [3] [µg/mL] | MIC [4] [µg/mL] | MIC [5] [µg/mL] | MIC [6] [µg/mL] | SMILES | IC50 [7] [µg/mL] | IC50 [8] [µg/mL] | IC50 MCF-7 Cell Line ([7]; 24 h incubation) [µg/mL] | IC50 NIH/3T3 Cell Line ([8]; 24 h incubation) [µg/mL] |
| --- | --- | --- | --- | --- | --- | --- | --- | --- | --- | --- | --- |
| 194 to 195 | 500 (≈ 1180 µM) | 500 (≈ 1180 µM) | 1000 (≈ 2350 µM) | 500 (≈ 1180 µM) | 500 (≈ 1180 µM) | 1000 (≈ 2350 µM) | O=[N+]([O-])c1cc(Cl)ccc1-c1ccc(C=NNc2nc(-c3ccccc3)cs2)o1 [Compound 8, 2-[2-((5-(4-Chloro-2-nitrophenyl)furan-2-yl)methylene)hydrazinyl]-4-phenylthiazole] | > 500 | > 500 |  |  |
| 186 to 187 | 500 (≈ 1090 µM) | 500 (≈ 1090 µM) | 1000 (≈ 2180 µM) | 1000 (≈ 2180 µM) | 500 (≈ 1090 µM) | 500 (≈ 1090 µM) | O=[N+]([O-])c1cc(Cl)ccc1-c1ccc(C=NNc2nc(-c3ccc(Cl)cc3)cs2)o1 [Compound 11, 2-[2-((5-(4-Chloro-2-nitrophenyl)furan-2-yl)methylene)hydrazinyl]-4-(4-chlorophenyl)thiazole] | 125 (≈ 272 µM) | > 500 |  |  |
| 199 to 201 | 1000 (≈ 1990 µM) | 500 (≈ 993 µM) | 500 (≈ 993 µM) | 1000 (≈ 1990 µM) | 1000 (≈ 1990 µM) | 500 (≈ 993 µM) | O=[N+]([O-])c1cc(Cl)ccc1-c1ccc(C=NNc2nc(-c3ccc(Br)cc3)cs2)o1 [Compound 12, 4-(4-Bromophenyl)-2-[2-((5-(4-chloro-2-nitrophenyl)furan-2-yl)methylene)hydrazinyl]thiazole] | 500 (≈ 993 µM) | > 500 |  |  |
| 208 to 209 | 500 (≈ 1130 µM) | 500 (≈ 1130 µM) | 1000 (≈ 2260 µM) | 1000 (≈ 2260 µM) | 250 (≈ 565 µM) | 500 (≈ 1130 µM) | O=[N+]([O-])c1cc(Cl)ccc1-c1ccc(C=NNc2nc(-c3ccc(F)cc3)cs2)o1 [Compound 10, 2-[2-((5-(4-Chloro-2-nitrophenyl)furan-2-yl)methylene)hydrazinyl]-4-(4-fluorophenyl)thiazole] | 122 (≈ 275 µM) | 250 (≈ 565 µM) |  |  |
| 166 to 167 | 500 (≈ 1140 µM) | 250 (≈ 570 µM) | 500 (≈ 1140 µM) | 500 (≈ 1140 µM) | 500 (≈ 1140 µM) | 1000 (≈ 2280 µM) | Cc1ccc(-c2csc(NN=Cc3ccc(-c4ccc(Cl)cc4[N+](=O)[O-])o3)n2)cc1 [Compound 13, 2-[2-((5-(4-Chloro-2-nitrophenyl)furan-2-yl)methylene)hydrazinyl]-4-(p-tolyl)thiazole] | 500 (≈ 1140 µM) | > 500 |  |  |
| 206 to 207 | 250 (≈ 550 µM) | 250 (≈ 550 µM) | 500 (≈ 1100 µM) | 500 (≈ 1100 µM) | 250 (≈ 550 µM) | 500 (≈ 1100 µM) | COc1ccc(-c2csc(NN=Cc3ccc(-c4ccc(Cl)cc4[N+](=O)[O-])o3)n2)cc1 [Compound 14, 2-[2-((5-(4-Chloro-2-nitrophenyl)furan-2-yl)methylene)hydrazinyl]-4-(4-methoxyphenyl)thiazole] | > 500 | > 500 |  |  |
